Where two headings read alike, the source gives them in different places.
Legend:
[1] = Metabolic hydrolysis of C21 found during development; type: in vitro ADME; settings: statement in background
[2] = Metabolic stability in pooled human liver microsomes; type: in vitro ADME; settings: human, pooled human liver microsomes, pooled human liver microsomes 0.5 mg/mL, 1 μM test compound, 37° C., * rows = mean of two runs
In short: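 Pooled human liver microsomes (0.5 mg/mL in PBS) preincubated ±1 mM NADPH at 37° C; test compound added at 10 min to 1 μM final. Samples at 0, 5, 15 and 60 min quenched in acetonitrile, parent quantified by LC-MS/MS against a standard curve (terfenadine internal standard). Initial metabolic rate calculated with and without NADPH.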

[3] = tested on: CYP3A4&5; test: in vitro; settings: human, human liver microsomes, probe testosterone;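 also: Read-out is the metabolite generated from the probe substrate, quantified as HPLC-MS/MS peak area once incubation ends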
[4] = molecular target: T1, CYP2C9 (Homo sapiens, UniProt P11712); test: CYP inhibition of C21 found during development; type: in vitro ADME; settings: statement in background
T1 sequence (P11712 whole entry): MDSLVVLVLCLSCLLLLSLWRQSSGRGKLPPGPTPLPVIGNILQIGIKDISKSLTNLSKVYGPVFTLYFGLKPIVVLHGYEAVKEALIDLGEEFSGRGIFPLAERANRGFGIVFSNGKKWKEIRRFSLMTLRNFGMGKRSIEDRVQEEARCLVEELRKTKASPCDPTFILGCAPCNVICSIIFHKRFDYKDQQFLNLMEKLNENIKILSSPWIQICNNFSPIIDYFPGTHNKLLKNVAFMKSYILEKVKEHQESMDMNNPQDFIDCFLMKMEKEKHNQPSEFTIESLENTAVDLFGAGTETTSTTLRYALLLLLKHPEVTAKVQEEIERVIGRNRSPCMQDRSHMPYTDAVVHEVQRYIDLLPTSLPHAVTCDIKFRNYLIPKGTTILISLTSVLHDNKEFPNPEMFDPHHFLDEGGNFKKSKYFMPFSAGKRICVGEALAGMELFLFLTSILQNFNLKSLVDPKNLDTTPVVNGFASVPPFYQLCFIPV

[5] = molecular target: T2, CYP3A4 (Homo sapiens, UniProt P08684); test: CYP inhibition of C21 found during development; type: in vitro ADME; settings: statement in background
T2 sequence (P08684 whole entry): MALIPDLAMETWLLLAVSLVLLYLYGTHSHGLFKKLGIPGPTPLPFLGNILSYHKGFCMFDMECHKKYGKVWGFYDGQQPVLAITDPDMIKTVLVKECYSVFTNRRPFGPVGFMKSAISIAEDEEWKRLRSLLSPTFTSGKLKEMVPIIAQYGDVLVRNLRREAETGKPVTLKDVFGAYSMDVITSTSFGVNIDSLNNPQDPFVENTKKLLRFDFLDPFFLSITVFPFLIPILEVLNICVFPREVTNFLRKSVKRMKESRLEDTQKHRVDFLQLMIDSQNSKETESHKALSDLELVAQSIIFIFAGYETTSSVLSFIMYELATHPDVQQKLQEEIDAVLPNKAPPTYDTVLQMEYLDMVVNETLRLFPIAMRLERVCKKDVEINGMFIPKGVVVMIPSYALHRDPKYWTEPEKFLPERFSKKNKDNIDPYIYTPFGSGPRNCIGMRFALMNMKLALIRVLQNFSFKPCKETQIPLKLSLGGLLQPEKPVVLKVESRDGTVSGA

[6] = molecular target: T3, human recombinant AT2 receptor (Homo sapiens, UniProt P50052); test: Binding to AT2 receptor, radiometric scintillation assay (Eurofins ITEM26); settings: ligand 125I CGP 42112A, * rows = mean of runs; for Ki: seven-point dose-response curve; for IC50: test compounds at 1, 10, 100 and 1000 nM, read-out: AT2 GraFit IC50
T3 construct: purchased Eurofins ITEM26 (protocol number)
T3 sequence (P50052 1-363): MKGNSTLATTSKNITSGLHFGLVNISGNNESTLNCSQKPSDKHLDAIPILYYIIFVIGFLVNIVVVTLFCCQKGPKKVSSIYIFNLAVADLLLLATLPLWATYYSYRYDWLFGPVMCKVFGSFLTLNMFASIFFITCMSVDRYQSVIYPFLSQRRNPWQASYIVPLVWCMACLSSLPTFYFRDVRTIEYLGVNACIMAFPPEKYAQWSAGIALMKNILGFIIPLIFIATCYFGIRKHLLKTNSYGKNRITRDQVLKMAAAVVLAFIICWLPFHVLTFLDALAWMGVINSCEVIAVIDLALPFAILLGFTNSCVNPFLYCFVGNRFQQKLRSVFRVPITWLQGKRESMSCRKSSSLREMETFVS

[7] = molecular target: T4, CYP2C19 (Homo sapiens, UniProt P33261); test: CYP inhibition in human liver microsomes (Eurofins ITEMG232); type: in vitro ADME; settings: human, probe omeprazole, substrate omeprazole, read-out: CYP2C19 Inh %
T4 construct: isoform-specific substrates incubated with human liver microsomes; tissue Eurofins ITEMG232 (protocol number); host or cells: human liver microsomes
T4 sequence (P33261 whole entry, canonical isoform): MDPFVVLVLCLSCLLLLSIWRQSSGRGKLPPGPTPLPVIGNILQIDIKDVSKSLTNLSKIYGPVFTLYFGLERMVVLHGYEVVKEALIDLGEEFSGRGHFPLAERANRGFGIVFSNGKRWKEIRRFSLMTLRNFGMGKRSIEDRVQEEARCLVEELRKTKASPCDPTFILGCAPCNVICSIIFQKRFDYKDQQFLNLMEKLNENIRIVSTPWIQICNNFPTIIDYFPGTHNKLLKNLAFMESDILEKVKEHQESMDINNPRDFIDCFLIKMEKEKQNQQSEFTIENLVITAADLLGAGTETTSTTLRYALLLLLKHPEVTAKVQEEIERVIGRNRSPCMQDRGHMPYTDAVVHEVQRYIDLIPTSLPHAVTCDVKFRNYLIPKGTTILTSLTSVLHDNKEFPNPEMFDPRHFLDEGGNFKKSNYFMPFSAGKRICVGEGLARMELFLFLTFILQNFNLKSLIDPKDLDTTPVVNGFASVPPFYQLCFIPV

[8] = molecular target: T5, CYP1A2 (Homo sapiens, UniProt P05177); test: in vitro; type: in vitro ADME; settings: human, microsomes, human liver microsomes, substrate phenacetin, read-out: CYP1A2 Inh %
T5 construct: isoform-specific substrates incubated with human liver microsomes; tissue Eurofins ITEMG232 (protocol number); host or cells: human liver microsomes
T5 sequence (P05177 whole entry, canonical isoform): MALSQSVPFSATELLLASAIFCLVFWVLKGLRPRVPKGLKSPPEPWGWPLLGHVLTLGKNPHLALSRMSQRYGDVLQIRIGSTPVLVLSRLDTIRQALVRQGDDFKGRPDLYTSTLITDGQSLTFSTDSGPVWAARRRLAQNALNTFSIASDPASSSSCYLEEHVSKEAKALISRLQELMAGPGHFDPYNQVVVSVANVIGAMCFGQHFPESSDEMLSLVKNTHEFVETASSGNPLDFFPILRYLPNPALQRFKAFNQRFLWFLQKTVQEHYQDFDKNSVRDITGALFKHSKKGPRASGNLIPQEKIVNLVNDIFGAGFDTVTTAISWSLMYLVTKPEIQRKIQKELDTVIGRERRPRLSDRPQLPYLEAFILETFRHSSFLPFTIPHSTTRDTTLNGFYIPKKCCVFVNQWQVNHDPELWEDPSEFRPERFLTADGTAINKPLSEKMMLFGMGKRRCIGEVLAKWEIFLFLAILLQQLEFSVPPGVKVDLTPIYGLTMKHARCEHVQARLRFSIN
Method: The following substrates were used; CYP1A phenacetin, CYP2B36 bupropion, CYP2C8 paclitaxel and amodiaquine, CYP2C9 diclofenac, CYP2C19 omeprazole, CYP2D6 dextromethorphan, CYP3A midazolam and testosterone.
At the end of the incubation, the formation of metabolite was monitored by HPLC-MS/MS as the peak area response.

[9] = molecular target: T6, CYP2B6 (Homo sapiens, UniProt P20813); test: CYP inhibition in human liver microsomes (Eurofins ITEMG232); type: in vitro ADME; settings: probe bupropion, substrate bupropion, read-out: CYP2B6 Inh %
T6 construct: isoform-specific substrates incubated with human liver microsomes; tissue Eurofins ITEMG232 (protocol number); host or cells: human liver microsomes
T6 sequence (P20813 1-491): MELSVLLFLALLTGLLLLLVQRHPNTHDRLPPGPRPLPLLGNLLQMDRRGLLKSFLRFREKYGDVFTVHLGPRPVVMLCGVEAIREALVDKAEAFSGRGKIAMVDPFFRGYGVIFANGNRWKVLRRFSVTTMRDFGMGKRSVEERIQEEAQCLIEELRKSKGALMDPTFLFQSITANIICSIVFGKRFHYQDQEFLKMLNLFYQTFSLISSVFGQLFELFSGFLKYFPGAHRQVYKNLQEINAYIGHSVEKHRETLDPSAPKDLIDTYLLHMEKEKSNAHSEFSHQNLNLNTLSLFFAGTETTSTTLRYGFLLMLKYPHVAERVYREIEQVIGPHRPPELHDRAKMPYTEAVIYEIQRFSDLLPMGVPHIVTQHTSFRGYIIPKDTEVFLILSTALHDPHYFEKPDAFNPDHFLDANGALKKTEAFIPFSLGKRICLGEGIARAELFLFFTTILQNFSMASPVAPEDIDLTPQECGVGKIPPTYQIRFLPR

[10] = molecular target: T7, CYP2D6 (Homo sapiens, UniProt P10635); test: as above; type: in vitro ADME; settings: probe dextromethorphan, substrate dextromethorphan, read-out: CYP2D6 Inh %
T7 construct: isoform-specific substrates incubated with human liver microsomes; tissue Eurofins ITEMG232 (protocol number); host or cells: human liver microsomes
T7 sequence (P10635 whole entry, canonical isoform): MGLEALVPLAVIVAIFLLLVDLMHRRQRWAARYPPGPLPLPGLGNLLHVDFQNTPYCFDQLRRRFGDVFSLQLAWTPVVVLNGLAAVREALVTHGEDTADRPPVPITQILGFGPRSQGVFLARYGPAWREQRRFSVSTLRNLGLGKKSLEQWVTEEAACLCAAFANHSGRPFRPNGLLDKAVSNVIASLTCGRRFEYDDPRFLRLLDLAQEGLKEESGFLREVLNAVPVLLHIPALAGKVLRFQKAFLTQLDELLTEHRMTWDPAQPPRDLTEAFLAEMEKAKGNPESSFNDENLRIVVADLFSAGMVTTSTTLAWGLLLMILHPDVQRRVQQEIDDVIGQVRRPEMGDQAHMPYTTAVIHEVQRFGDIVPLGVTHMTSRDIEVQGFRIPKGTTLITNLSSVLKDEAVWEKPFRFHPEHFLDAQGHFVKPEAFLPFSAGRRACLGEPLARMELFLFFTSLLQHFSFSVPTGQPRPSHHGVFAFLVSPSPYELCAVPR

[11] = molecular target: T8, human recombinant AT1 receptor (Homo sapiens, UniProt P30556); test: Binding to AT1 receptor, radiometric scintillation assay (Eurofins ITEM24); settings: test compounds at 1 and 10 μM, ligand 125I(sar1,Ile8)-AT-II; * rows = mean of runs
T8 construct: purchased Eurofins ITEM24 (protocol number)
T8 sequence (P30556 1-359): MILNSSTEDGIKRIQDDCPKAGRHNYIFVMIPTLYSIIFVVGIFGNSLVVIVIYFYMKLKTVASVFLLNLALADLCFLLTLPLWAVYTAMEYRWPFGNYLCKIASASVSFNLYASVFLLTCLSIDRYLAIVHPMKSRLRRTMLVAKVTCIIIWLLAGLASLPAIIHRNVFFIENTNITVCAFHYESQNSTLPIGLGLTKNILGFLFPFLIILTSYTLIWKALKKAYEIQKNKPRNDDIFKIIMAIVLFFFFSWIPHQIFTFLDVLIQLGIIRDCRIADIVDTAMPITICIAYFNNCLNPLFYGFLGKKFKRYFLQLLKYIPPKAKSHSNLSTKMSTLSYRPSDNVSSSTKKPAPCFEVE

[12] = molecular target: T9, CYP2C8 (Homo sapiens, UniProt P10632); test: CYP inhibition in human liver microsomes (Eurofins ITEMG232); type: in vitro ADME; settings: human, probe paclitaxel and amodiaquine, substrate paclitaxel and amodiaquine, read-out: CYP2C8 Inh %
T9 construct: isoform-specific substrates incubated with human liver microsomes; tissue Eurofins ITEMG232 (protocol number); host or cells: human liver microsomes
T9 sequence (P10632 1-490): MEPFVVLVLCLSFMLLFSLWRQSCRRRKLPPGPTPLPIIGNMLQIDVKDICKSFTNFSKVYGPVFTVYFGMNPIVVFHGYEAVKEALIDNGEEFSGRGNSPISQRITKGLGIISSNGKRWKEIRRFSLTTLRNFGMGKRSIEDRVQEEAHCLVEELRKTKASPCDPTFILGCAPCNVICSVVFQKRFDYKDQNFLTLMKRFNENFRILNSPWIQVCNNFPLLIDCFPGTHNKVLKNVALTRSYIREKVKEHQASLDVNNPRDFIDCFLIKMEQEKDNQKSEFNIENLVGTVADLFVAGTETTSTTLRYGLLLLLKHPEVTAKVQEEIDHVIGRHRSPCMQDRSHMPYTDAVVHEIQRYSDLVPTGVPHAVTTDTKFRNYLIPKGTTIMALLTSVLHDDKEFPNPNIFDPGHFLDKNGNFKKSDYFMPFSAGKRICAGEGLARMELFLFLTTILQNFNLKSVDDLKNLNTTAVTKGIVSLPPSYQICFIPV

[13] = molecular target: T1, CYP2C9; test: as above; type: in vitro ADME; parameters: isoform-specific substrates incubated with human liver microsomes; tissue Eurofins ITEMG232 (protocol number); host or cells: human liver microsomes; settings: human, probe diclofenac, substrate diclofenac, read-out: CYP2C9 Inh %
[14] = molecular target: T2, CYP3A4; test: CYP inhibition in human liver microsomes (Eurofins ITEMG232), midazolam substrate; type: in vitro ADME; parameters: isoform-specific substrates incubated with human liver microsomes; tissue Eurofins ITEMG232 (protocol number); host or cells: human liver microsomes; settings: human, probe midazolam, read-out: CYP3A4 midazolam Inh %
[15] = without NADPH, read-out: T1/2, no NaDPH
[16] = with 1 mM NADPH, read-out: T1/2, + NaDPH

Row | half-life at 1 μM [2, 15] [min] | inhibition at 10 µM [3] [%] | inhibition of CYP 2C9 [4] | inhibition of CYP 3A4 [5] | half-life at 1 μM [2, 16] [min] | Ki [6] [nM] | IC50 [6] [nM] | inhibition at 10 µM [7] [%] | inhibition at 10 µM [8] [%] | inhibition at 10 µM [9] [%] | inhibition at 10 µM [10] [%] | IC50 [11] [nM] | inhibition at 10 µM [12] [%] | inhibition at 10 µM [13] [%] | inhibition at 10 µM [14] [%] | Compound | metabolic hydrolysis [1]
1 | 30 | 94 | potent inhibitor | potent inhibitor | – | – | – | – | – | – | – | – | – | – | – | CCCCOC(=O)NS(=O)(=O)c1sc(CC(C)C)cc1-c1ccc(Cn2ccnc2)cc1 [Example C21, N-butyloxycarbonyl-3-(4-imidazol-1-ylmethylphenyl)-5-isobutylthiophene-2-sulfon-amide] | rapidly hydrolysed to an inactive sulfonamide metabolite
2 | > 60 | 26.8 | – | – | > 60 | 2.4 | 4.79 | 36.9 | -33.8 | -0.5 | 17.2 | 14300 | 89.2 | 4 | 49.8 | CC(C)Cc1ccc(S(=O)(=O)Nc2ncc(F)cn2)c(-c2ccc(Cn3ccnc3C(C)(C)C)cc2)c1 [Example 3, 4′-((2-(tert-Butyl)-1H-imidazol-1-yl)methyl)-N-(5-fluoropyrimidin-2-yl)-5-isobutyl-[1,1′-biphenyl]-2-sulfonamide] | –
3 | > 60 | 97 | – | – | 8 | 71 | 142 | 85.7 | -1.1 | 20.5 | 4 | 58700 | 58.1 | 94.7 | 98.2 | COc1ncncc1NS(=O)(=O)c1ccc(CC(C)C)cc1-c1ccc(Cn2ccnc2C(C)(C)C)c(F)c1 [Example 22, 4′-((2-(tert-Butyl)-1H-imidazol-1-yl)methyl)-3′-fluoro-5-isobutyl-N-(4-methoxy-pyrimidin-5-yl)-[1,1′-biphenyl]-2-sulfonamide] | –

— US12441718B2, “Selective angiotensin II compounds” (VICORE PHARMA AB, priority 2021, dated 2025)
